Measured values taken from patent US20040023362A1, “Degradation of polycyclic aromatic hydrocarbons by microorganisms” (priority 2000, published 2004).
≈ marks a conversion by molar mass, not a printed value.

What was measured:
VUN 110,013 = type: cell-based, Burkholderia sp.; conditions: substrate 50 mg l^−1 (or vapor phase), sole carbon source
Experimental: (§1) Gram staining and biochemical tests for bacterial identification were performed according to Collin et al. (1989) following growth in nutrient broth or nutrient agar. […] Compounds tested were added to BSM as a sole carbon and energy source at 50 mg l^−1, and volatile compounds were supplied to the culture in the vapour phase. […] The cells were collected and washed in BSM and the resuspended cells were inoculated into BSM containing different carbon sources. Inoculated BSM without an added carbon source and uninoculated BSM plus carbon source were used as controls. Inocula for the PAH degradation tests were transferred directly from parent cultures, but inocula for other carbon sources were washed prior to inoculation.

[1] = tested on: strains VUN 10,010, VUN 10,011 and VUN 10,012; test: Growth of all the strains on compounds as sole carbon and energy source; type: cell-based; conditions: supplied at 50 mg l^−1
Experimental: as §1

VUN 110,012 = test: Growth of PAH-degrading bacteria on a variety of carbon sources; type: cell-based, Stenotrophomonas maltophilia; conditions: substrate 50 mg l^−1 (or vapor phase), sole carbon source
Experimental: as §1

VUN 110,010 = test: as above; type: cell-based, Stenotrophomonas maltophilia; conditions: substrate 50 mg l^−1 (or vapor phase), sole carbon source
Experimental: as §1

VUN 110,011 = test: as above; type: cell-based, Pseudomonas fluorescens; conditions: substrate 50 mg l^−1 (or vapor phase), sole carbon source
Experimental: as §1

[2] = PAH solubilization by surfactants (apparent solubility, MSR, Km)
Experimental: PAHs (approximately 1 g l^−1) were added to a 10 ml solution of BSM plus surfactant in a 30 ml glass reaction vial, which was sealed with an aluminium cap fitted with a septum. Surfactant concentrations corresponded to levels above, below, and at the CMC, and replicates were set up to allow sampling in duplicate at different time intervals up to 72 h. Incubation was performed at 30° C. and 175 rpm. The entire vial contents was collected by syringe and expressed through a preconditioned membrane filter (0.22 μm, Sartorius AG, Germany) to remove solid-phase crystalline PAH while allowing solubilized PAH in the aqueous phase and micellar pseudophase to pass into sterile vials. The filter was preconditioned by purging the filter with a few mls of sample solution to allow sorption saturation of the internal surfaces of the syringe, filter and needle. The filtrates were extracted with dichloromethane (DCM), and the concentration of solubilized PAH was determined by GC-FID as described below.
The effectiveness of a particular surfactant in solubilizing a given PAH can be assessed by determining the molar solubilization ratio (MSR) and micelle/water partition coefficient (Km). In our study, the concentrations of added PAHs were well in excess of aqueous saturation concentrations; therefore the MSR value of each compound can be obtained from the slope of the curve generated from a plot of PAH concentration versus surfactant concentration for surfactant concentrations above CMC (Edwards et al, 1991).
Km values can be determined from the measured MSR values according to the following equation (Edwards et al, 1991): [formula]
^SPAH, CMC is the apparent solubility of the PAH (mol l^−1) at surfactant CMC. VW is the molar volume of water at 30° C. ie. 0.018015 l mol^−1(Rogers and Mayhew, 1981).

[3] = tested on: S. maltophilia VUN 10,010; test: Degradation of single high molecular weight PAHs by high initial populations of VUN 10,010 with surfactant; type: cell-based, Stenotrophomonas maltophilia
Experimental: […] Incubations contained a single PAH in BSM at 30° C. The PAH remaining was calculated as a percentage relative to the PAH recovered from the […]. Averages for the test cultures are from triplicate experiments.
Tergitol NP-10 (5 and 10 g l^−1) was added to BSM broths each containing a single high molecular weight PAH.

[4] = tested on: S. maltophilia VUN 10,010; test: Degradation of a PAH mixture by VUN 10,010 with surfactant, low initial cell population; type: cell-based, Stenotrophomonas maltophilia; conditions: for Maximum Specific Degradation Rate: — = not appreciable
Experimental: The incubations were conducted in BSM at 30° C., using low initial cell populations. The PAH remaining was calculated as a percentage relative to the PAH recovered from the uninoculated control. Averages for the test cultures are from triplicate experiments.
A low initial cell population of around 9×10^3 cells ml^−1 was used.

[5] = Tergitol NP-10 5 g l^−1, Single PAH
[6] = Tergitol NP-10 10 g l^−1, Single PAH
[7] = Tergitol NP-10 5 g l^−1, Mixed PAH

Cc1ccccc1 [Toluene]
Growth (VUN 110,013): −
growth on compound as the sole carbon and energy source [1]: grew
Growth (VUN 110,012): +
Growth (VUN 110,010): +
Growth (VUN 110,011): +

O=C(O)c1ccccc1 [Benzoic acid]
Growth (VUN 110,013): +
growth on compound as the sole carbon and energy source [1]: grew
Growth (VUN 110,012): +
Growth (VUN 110,010): +
Growth (VUN 110,011): +

O=C(O)c1ccc(O)c(O)c1 [Protocatechuic acid]
Growth (VUN 110,013): +
growth on compound as the sole carbon and energy source [1]: grew
Growth (VUN 110,012): +
Growth (VUN 110,010): +
Growth (VUN 110,011): +

c1ccccc1 [Benzene]
Growth (VUN 110,013): +
growth on compound as the sole carbon and energy source [1]: grew
Growth (VUN 110,012): +
Growth (VUN 110,010): +
Growth (VUN 110,011): +

O=[N+]([O-])c1ccc(O)cc1 [4-nitrophenol]
Growth (VUN 110,013): −
Growth (VUN 110,012): −
Growth (VUN 110,010): −
Growth (VUN 110,011): −

O=C(O)C=Cc1ccccc1 [Cinnamic acid]
Growth (VUN 110,013): −
Growth (VUN 110,012): −
Growth (VUN 110,010): +
Growth (VUN 110,011): −

O=C(O)c1ccc(O)cc1 [p-hydroxybenzoic acid]
Growth (VUN 110,013): +
growth on compound as the sole carbon and energy source [1]: grew
Growth (VUN 110,012): +
Growth (VUN 110,010): +
Growth (VUN 110,011): +

O=C(O)/C=C\C(=O)O [Maleic acid]
Growth (VUN 110,013): +
Growth (VUN 110,012): +
Growth (VUN 110,010): +
Growth (VUN 110,011): +

O=C(O)c1ccccc1C(=O)O [Phthalic acid]
Growth (VUN 110,013): +
growth on compound as the sole carbon and energy source [1]: grew
Growth (VUN 110,012): +
Growth (VUN 110,010): +
Growth (VUN 110,011): +

c1ccc2c(c1)-c1cccc3cccc-2c13 [Fluoranthene, fluoranthene]
solubility ([2]; 30° C.): ~1.37 µM (≈ 0.277 µg/mL)
solubility ([2]; 30 °C, aqueous with cosolvent or surfactant or cyclodextrin, thermodynamic from solid): 730 to 810 µM (≈ 148 to 164 µg/mL)
Maximum Specific Degradation Rate ([3]; Brij 35 5 g l^−1, Single PAH): 3.71 mg PAH degraded mg^−1 protein day^−1
percentage change in maximum specific degradation rate due to surfactant addition ([3]; Brij 35 5 g l^−1, Single PAH): +28%
Maximum Specific Degradation Rate ([3]; Brij 35 10 g l^−1, Single PAH): 12.11 mg PAH degraded mg^−1 protein day^−1
percentage change in maximum specific degradation rate due to surfactant addition ([3]; Brij 35 10 g l^−1, Single PAH): +318%
Maximum Specific Degradation Rate ([3]; No Surfactant, Single PAH): 2.90 mg PAH degraded mg^−1 protein day^−1
Maximum Specific Degradation Rate [3, 5]: 4.54 mg PAH degraded mg^−1 protein day^−1
percentage change in maximum specific degradation rate due to surfactant addition [3, 5]: +57%
Maximum Specific Degradation Rate [3, 6]: 4.59 mg PAH degraded mg^−1 protein day^−1
percentage change in maximum specific degradation rate due to surfactant addition [3, 6]: +58%
Maximum Specific Degradation Rate ([4]; No Surfactant, Mixed PAH): 1.02 mg PAH degraded mg^−1 protein day^−1
percentage change in maximum specific degradation rate due to surfactant addition [4, 7]: +9%
Maximum Specific Degradation Rate [4, 7]: 1.11 mg PAH degraded mg^−1 protein day^−1

O=[N+]([O-])c1ccccc1 [Nitrobenzene]
Growth (VUN 110,013): −
Growth (VUN 110,012): +
Growth (VUN 110,010): +
Growth (VUN 110,011): −

O=C(O)c1ccccc1O [Salicylic acid]
Growth (VUN 110,013): +
growth on compound as the sole carbon and energy source [1]: grew
Growth (VUN 110,012): +
Growth (VUN 110,010): +
Growth (VUN 110,011): +

Tween 40
growth on compound as the sole carbon and energy source [1]: grew

O=C(O)c1cc(O)ccc1O [Gentisic acid]
Growth (VUN 110,013): +
Growth (VUN 110,012): +
Growth (VUN 110,010): +
Growth (VUN 110,011): +

Tween 80
Growth (VUN 110,013): +
growth on compound as the sole carbon and energy source [1]: grew
Growth (VUN 110,012): +
Growth (VUN 110,010): +
Growth (VUN 110,011): +

CC(C)(CO)[C@@H](O)C(=O)NCCC(=O)O [D-panthothenic acid]
Growth (VUN 110,013): +
Growth (VUN 110,012): +
Growth (VUN 110,010): +
Growth (VUN 110,011): +

Oc1ccccc1O [Catechol]
Growth (VUN 110,013): +
growth on compound as the sole carbon and energy source [1]: grew
Growth (VUN 110,012): +
Growth (VUN 110,010): +
Growth (VUN 110,011): +

Tween 20
Growth (VUN 110,013): +
growth on compound as the sole carbon and energy source [1]: grew
Growth (VUN 110,012): +
Growth (VUN 110,010): +
Growth (VUN 110,011): +

Tween 60
growth on compound as the sole carbon and energy source [1]: grew

Oc1ccc(Cl)cc1 [4-chlorophenol]
Growth (VUN 110,013): +
growth on compound as the sole carbon and energy source [1]: grew
Growth (VUN 110,012): +
Growth (VUN 110,010): +
Growth (VUN 110,011): −

c1cc2ccc3ccc4ccc5ccc6ccc1c1c2c3c4c5c61 [Coronene, coronene]
Maximum Specific Degradation Rate ([3]; Brij 35 5 g l^−1, Single PAH): 0.79 mg PAH degraded mg^−1 protein day^−1
percentage change in maximum specific degradation rate due to surfactant addition ([3]; Brij 35 5 g l^−1, Single PAH): +5%
Maximum Specific Degradation Rate ([3]; Brij 35 10 g l^−1, Single PAH): 1.19 mg PAH degraded mg^−1 protein day^−1
percentage change in maximum specific degradation rate due to surfactant addition ([3]; Brij 35 10 g l^−1, Single PAH): +59%
Maximum Specific Degradation Rate ([3]; No Surfactant, Single PAH): 0.75 mg PAH degraded mg^−1 protein day^−1
PAH degradation rate in the presence of surfactants ([3]; Tergitol NP-10 5 and 10 g l^−1, high initial cell population): did not show improved PAH degradation rate
Maximum Specific Degradation Rate [3, 5]: 0.98 mg PAH degraded mg^−1 protein day^−1
percentage change in maximum specific degradation rate due to surfactant addition [3, 5]: +31%
Maximum Specific Degradation Rate [3, 6]: 0.79 mg PAH degraded mg^−1 protein day^−1
percentage change in maximum specific degradation rate due to surfactant addition [3, 6]: +5%

Oc1c(Cl)c(Cl)c(Cl)c(Cl)c1Cl [Pentachlorophenol]
Growth (VUN 110,013): −
Growth (VUN 110,012): +
Growth (VUN 110,010): +
Growth (VUN 110,011): −

CCCCCCCCCCCCCCCC [n-hexadecane]
Growth (VUN 110,013): +
growth on compound as the sole carbon and energy source [1]: grew
Growth (VUN 110,012): +
Growth (VUN 110,010): +
Growth (VUN 110,011): +

CC(=O)C(=O)O [Pyruvate]
Growth (VUN 110,013): +
Growth (VUN 110,012): +
Growth (VUN 110,010): +
Growth (VUN 110,011): +

CCCCCCCC [n-octane]
Growth (VUN 110,013): +
growth on compound as the sole carbon and energy source [1]: grew
Growth (VUN 110,012): +
Growth (VUN 110,010): +
Growth (VUN 110,011): +

Oc1cc(Cl)ccc1Cl [2,5-dichlorophenol]
Growth (VUN 110,013): +
growth on compound as the sole carbon and energy source [1]: grew
Growth (VUN 110,012): +
Growth (VUN 110,010): +
Growth (VUN 110,011): +

Oc1cc(Cl)c(Cl)cc1Cl [2,4,5-trichloro-phenol]
Growth (VUN 110,013): +
Growth (VUN 110,012): +
Growth (VUN 110,010): +
Growth (VUN 110,011): +

Oc1c(Cl)c(Cl)cc(Cl)c1Cl [2,3,5,6-tetrachloro-phenol]
Growth (VUN 110,013): +
Growth (VUN 110,012): +
Growth (VUN 110,010): +
Growth (VUN 110,011): +

O=C(O)CCC(=O)O [Succinic acid]
Growth (VUN 110,013): +
growth on compound as the sole carbon and energy source [1]: grew
Growth (VUN 110,012): +
Growth (VUN 110,010): +
Growth (VUN 110,011): +
